Test results taken from patent US4331666A, “3-[(8-Carboxy-6-tetraz olo[1,5-b]pyridazinyl)-thiomethyl]-7-[2-(2-amino-4-thiazolyl)-2-methoxyim ino-acetamido]-3-cephem-4-carboxylic acid” (Farmitalia Carlo Erba S.p.A., priority 1979, dated 1982).
Like-named read-outs stand apart in the source and are kept apart here.

Key:
streptococci = assay type: cell-based
Gram-negative bacteria = test: antibacterial activity against most Gram-negative bacteria (compared with Cefazolin and Cefuroxime); assay type: cell-based
[1] = tested on: 10 strains of Pseudomonas aeruginosa, 4 strains of Proteus vulgaris and 4 strains of Proteus morganii; test: test on a series of strains of Pseudomonas aeruginosa, Proteus vulgaris and Proteus morganii; assay type: cell-based; conditions: 10 strains Pseudomonas aeruginosa, 4 strains Proteus vulgaris, 4 strains Proteus morganii
[2] = tested on: mice infected with Escherichia coli G, Klebsiella pneumoniae ATCC 10031, Proteus mirabilis ATCC 9921, Escherichia coli Tem., Haemophilus influenzae Salmonella …; test: in vivo activity in infected mice; conditions: in words
[3] = approximate acute toxicity (LD50) in the mouse; conditions: in vivo, single intravenous administrations of increasing doses, measured on the seventh day
Description: The toxicity of the compounds of the invention is quite negligible and therefore they can be safely used in therapy. […] Analogous activity and toxicity data have been found for the other compounds of the invention.

[4] = plasma half-life in the rat after intravenous injection; conditions: in vivo
[5] = tested on: Bacteroides fragilis VPL 9032; test: in vitro activity against Bacteroides fragilis VPL 9032; assay type: cell-based
[6] = tested on: Pseudomonas aeruginosa G.; test: in vitro activity against Pseudomonas aeruginosa G.; assay type: cell-based
[7] = plasma half-life in the mouse after intravenous injection; conditions: in vivo

Compound	times more active than Cefazolin against streptococci (streptococci; ratio vs Cefazolin, streptococci)	times more active than Cefazolin and Cefuroxime against most Gram-negative bacteria (Gram-negative bacteria; ratio vs Cefazolin and Cefuroxime)	activity compared with Cefazolin and Cefuroxime [1]	activity in vivo tests [2]	times more active than Cefazolin against streptococci (streptococci)	LD50 at 168 h [3] [mg/kg]	times more active than Cefazolin against most Gram-negative bacteria (Gram-negative bacteria; ratio vs Cefazolin)	times more active than Cefuroxime against most Gram-negative bacteria (Gram-negative bacteria; ratio vs Cefuroxime) [times]	half-life [4] [h]	in vitro activity [5]	in vitro activity [6]	half-life [7] [h]
CON=C(C(=O)NC1C(=O)N2C(C(=O)O)=C(CSc3cc(N)c4nnnn4n3)CSC12)c1csc(N)n1 (stereo not drawn) [FCE 20127, 3-[(8-amino-6-tetrazolo[1,5-b]pyridazinyl)-thiomethyl]-7-[2-(2-amino-4-thiazolyl)-2-methoxyiminoacetamido]-3-cephem-4-carboxylic acid (syn-isomer)]	about 24 times	about 30 times	several times more active than Cefazolin and Cefuroxime	–	–	–	–	–	–	–	–	–
CON=C(C(=O)NC1C(=O)N2C(C(=O)O)=C(CSc3cc(C(=O)O)c4nnnn4n3)CSC12)c1csc(N)n1 (stereo not drawn) [FCE 20485, 3-[(8-carboxy-6-tetrazolo[1,5-b]pyridazinyl)-thiomethyl]-7-[2-(2-amino-4-thiazolyl)-2-methoxyiminoacetamido]-3-cephem-4-carboxylic acid (syn-isomer)]	–	–	–	high activity	about 5 times	> 2000	about 32 times	~40	~1.67	significant in vitro activity	significant in vitro activity	~1.5
